Values after ≈ are worked out from the molar mass of the structure shown.
Legend:
[1] = biological target: T1, Phosphatidylinositol 4,5-bisphosphate 3-kinase catalytic subunit delta isoform (Homo sapiens, UniProt O00329); test: Inhibition of human PI3Kdelta after 15 mins
T1 sequence (O00329 whole entry): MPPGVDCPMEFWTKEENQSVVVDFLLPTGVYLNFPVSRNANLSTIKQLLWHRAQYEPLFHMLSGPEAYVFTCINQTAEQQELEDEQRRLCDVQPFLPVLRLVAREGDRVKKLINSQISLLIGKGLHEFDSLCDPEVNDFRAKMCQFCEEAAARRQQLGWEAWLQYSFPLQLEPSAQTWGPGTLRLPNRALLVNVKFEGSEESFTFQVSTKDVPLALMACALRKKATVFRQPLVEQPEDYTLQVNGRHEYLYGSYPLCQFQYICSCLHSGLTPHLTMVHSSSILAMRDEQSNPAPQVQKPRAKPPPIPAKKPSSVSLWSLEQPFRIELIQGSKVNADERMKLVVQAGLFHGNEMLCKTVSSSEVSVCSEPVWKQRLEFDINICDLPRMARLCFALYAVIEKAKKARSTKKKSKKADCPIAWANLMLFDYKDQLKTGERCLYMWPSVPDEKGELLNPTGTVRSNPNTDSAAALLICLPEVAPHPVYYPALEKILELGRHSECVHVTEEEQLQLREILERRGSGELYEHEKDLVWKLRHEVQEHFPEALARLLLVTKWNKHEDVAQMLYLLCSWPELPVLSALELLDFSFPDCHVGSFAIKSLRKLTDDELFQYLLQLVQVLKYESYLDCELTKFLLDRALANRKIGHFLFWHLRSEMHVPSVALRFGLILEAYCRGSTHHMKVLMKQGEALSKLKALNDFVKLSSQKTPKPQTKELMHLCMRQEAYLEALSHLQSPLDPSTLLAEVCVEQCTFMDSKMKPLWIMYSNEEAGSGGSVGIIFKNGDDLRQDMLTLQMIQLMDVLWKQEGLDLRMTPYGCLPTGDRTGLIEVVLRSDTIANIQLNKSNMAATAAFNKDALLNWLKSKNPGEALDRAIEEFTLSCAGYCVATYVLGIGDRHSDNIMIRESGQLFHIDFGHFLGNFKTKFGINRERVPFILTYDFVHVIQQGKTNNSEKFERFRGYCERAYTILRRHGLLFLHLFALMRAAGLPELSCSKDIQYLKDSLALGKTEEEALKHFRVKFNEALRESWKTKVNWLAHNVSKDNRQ

[2] = biological target: T2, Phosphatidylinositol 4,5-bisphosphate 3-kinase catalytic subunit beta isoform (Homo sapiens, UniProt P42338); test: Inhibition of PI3Kbeta in human PTEN-deficient PC3 cells assessed as Akt phosphorylation at S473; assay type: cell-based, PC-3
T2 sequence (P42338 whole entry, canonical isoform): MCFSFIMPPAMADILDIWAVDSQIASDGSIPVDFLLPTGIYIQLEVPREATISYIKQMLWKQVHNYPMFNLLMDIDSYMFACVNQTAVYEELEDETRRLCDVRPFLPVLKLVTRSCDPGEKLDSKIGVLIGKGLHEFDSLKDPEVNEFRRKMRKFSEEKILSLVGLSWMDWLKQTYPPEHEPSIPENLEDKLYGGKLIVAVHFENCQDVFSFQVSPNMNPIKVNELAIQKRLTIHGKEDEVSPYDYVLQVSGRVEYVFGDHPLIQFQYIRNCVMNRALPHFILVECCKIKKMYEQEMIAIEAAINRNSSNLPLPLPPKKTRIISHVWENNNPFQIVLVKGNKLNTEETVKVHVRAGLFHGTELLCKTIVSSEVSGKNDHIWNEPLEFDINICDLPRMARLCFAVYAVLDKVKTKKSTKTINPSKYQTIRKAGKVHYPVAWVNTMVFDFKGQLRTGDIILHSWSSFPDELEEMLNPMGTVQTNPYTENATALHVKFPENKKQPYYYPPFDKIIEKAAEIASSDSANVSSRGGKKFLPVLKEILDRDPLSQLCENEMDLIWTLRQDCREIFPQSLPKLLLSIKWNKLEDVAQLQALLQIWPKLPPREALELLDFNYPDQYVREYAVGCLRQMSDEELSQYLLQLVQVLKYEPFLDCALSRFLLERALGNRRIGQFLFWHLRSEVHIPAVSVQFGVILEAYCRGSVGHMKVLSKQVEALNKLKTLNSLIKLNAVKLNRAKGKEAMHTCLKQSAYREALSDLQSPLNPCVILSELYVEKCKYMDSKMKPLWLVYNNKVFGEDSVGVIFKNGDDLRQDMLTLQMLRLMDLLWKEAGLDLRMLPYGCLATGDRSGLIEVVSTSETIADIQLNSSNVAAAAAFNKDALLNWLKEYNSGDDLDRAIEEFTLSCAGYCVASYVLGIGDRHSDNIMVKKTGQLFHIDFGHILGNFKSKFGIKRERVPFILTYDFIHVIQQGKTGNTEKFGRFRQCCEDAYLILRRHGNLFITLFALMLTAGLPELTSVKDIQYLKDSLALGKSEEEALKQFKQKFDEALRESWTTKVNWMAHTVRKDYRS

[3] = biological target: Phosphatidylinositol 4,5-bisphosphate 3-kinase catalytic subunit gamma isoform (Homo sapiens, UniProt P48736); test: Inhibition of human PI3Kgamma after 15 mins
Sequence of Phosphatidylinositol 4,5-bisphosphate 3-kinase catalytic subunit gamma isoform (P48736 whole entry, canonical isoform): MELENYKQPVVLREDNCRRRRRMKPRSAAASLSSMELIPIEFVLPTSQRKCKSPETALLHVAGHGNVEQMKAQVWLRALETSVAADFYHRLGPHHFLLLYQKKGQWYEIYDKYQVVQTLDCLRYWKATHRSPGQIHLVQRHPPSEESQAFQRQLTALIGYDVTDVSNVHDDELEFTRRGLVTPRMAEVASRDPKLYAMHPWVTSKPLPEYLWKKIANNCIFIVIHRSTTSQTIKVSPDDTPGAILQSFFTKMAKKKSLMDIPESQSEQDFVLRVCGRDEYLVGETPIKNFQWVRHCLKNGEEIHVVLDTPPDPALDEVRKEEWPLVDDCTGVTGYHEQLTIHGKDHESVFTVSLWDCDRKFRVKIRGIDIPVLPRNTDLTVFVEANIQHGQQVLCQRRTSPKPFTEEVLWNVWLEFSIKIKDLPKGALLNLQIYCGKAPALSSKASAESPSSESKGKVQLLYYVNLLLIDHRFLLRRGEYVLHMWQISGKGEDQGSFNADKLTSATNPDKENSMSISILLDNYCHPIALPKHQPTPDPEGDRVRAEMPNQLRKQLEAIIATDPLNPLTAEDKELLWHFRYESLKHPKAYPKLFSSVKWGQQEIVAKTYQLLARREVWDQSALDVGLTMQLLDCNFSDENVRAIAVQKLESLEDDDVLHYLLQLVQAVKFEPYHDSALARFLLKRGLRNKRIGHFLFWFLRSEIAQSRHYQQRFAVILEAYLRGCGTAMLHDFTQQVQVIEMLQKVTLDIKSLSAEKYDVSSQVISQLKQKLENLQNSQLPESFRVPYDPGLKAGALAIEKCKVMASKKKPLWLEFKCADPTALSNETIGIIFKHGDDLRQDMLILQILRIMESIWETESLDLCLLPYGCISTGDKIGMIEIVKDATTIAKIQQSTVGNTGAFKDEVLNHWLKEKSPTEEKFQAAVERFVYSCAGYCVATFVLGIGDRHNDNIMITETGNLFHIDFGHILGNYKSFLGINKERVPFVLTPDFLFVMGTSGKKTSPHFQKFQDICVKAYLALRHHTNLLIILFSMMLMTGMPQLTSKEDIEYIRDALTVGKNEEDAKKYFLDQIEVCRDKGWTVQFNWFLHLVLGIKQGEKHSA

[4] = biological target: T2, Phosphatidylinositol 4,5-bisphosphate 3-kinase catalytic subunit beta isoform; test: Inhibition of human PI3Kbeta after 15 mins
[5] = biological target: Phosphatidylinositol 4,5-bisphosphate 3-kinase catalytic subunit alpha isoform (Homo sapiens, UniProt P42336); test: Inhibition of human PI3Kalpha after 15 mins
Sequence of Phosphatidylinositol 4,5-bisphosphate 3-kinase catalytic subunit alpha isoform (P42336 whole entry, canonical isoform): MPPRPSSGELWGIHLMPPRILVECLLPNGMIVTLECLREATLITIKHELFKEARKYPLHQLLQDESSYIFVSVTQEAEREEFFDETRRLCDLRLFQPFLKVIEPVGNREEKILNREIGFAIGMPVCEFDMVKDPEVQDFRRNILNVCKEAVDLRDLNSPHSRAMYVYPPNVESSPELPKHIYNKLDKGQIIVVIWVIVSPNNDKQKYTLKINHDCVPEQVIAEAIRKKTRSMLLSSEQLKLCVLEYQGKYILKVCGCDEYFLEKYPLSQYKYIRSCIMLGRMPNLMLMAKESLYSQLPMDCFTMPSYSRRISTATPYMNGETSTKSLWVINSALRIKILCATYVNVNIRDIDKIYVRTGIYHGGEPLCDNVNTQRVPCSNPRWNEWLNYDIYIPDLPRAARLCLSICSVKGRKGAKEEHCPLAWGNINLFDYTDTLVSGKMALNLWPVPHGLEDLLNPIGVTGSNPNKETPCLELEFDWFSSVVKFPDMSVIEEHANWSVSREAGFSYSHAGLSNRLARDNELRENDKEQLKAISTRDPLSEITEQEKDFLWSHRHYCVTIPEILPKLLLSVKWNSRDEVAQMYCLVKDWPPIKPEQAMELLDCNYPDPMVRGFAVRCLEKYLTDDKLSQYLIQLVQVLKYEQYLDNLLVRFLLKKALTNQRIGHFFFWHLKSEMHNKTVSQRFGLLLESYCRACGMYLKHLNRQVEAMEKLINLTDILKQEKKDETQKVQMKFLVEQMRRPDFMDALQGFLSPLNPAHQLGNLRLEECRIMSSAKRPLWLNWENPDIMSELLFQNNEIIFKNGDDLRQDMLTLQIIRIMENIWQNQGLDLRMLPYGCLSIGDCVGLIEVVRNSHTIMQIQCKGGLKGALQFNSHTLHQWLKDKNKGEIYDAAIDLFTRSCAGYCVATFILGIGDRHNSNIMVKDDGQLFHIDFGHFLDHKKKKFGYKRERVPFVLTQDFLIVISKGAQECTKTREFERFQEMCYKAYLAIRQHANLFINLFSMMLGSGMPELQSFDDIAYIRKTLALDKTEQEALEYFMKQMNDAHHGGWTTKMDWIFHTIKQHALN

[6] = Drug metabolism in mouse liver microsomes assessed as compound lability; assay type: ADME, Microsome; conditions: for metabolised: liver microsomes, read-out: Drug metabolism
[7] = Drug metabolism in human liver microsomes assessed as compound lability; assay type: ADME; conditions: liver microsomes, read-out: Drug metabolism
[8] = biological target: Cytochrome P450 3A4 (Homo sapiens, UniProt P08684); test: Inhibition of human recombinant CYP3A4
Sequence of Cytochrome P450 3A4 (P08684 whole entry): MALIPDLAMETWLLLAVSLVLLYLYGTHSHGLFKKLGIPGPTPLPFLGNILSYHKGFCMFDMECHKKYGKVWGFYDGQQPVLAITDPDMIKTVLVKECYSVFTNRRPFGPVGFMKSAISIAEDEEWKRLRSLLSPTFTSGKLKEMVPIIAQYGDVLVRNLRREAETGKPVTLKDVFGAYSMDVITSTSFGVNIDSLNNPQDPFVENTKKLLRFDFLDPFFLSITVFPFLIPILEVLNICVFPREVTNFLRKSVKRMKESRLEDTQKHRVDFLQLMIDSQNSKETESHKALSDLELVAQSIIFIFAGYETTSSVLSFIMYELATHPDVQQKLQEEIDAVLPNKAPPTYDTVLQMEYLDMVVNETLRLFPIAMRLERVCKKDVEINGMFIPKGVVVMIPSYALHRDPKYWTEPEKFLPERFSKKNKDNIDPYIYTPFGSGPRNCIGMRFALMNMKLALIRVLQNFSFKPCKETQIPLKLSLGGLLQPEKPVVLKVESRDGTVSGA

[9] = Apparent permeability of the compound in human Caco2 cells; assay type: ADME, cell-based; conditions: Caco-2
[10] = Thermodynamic solubility of the compound in 50 mM Phosphate buffer at pH 7.4 after 16 hrs by HPLC analysis; assay type: physicochemical; conditions: phosphate buffer, pH 7.4; read-out: Therm_solubility

| SMILES | IC50 [1] [nM] | IC50 [2] [nM] | IC50 [3] [µM] | IC50 [4] [nM] | IC50 [5] [µM] | metabolised [6] [%] | metabolised [7] [%] | IC50 [8] [µM] | Papp [9] [×10⁻⁶ cm/s] | solubility thermodynamic at 16 h [10] [µM] | Drug metabolism ([6]; microsomes) [%] |
| --- | --- | --- | --- | --- | --- | --- | --- | --- | --- | --- | --- |
| O=C(O)c1sc(N2CCOCC2)nc1CC(=O)N1CCc2ccccc21 | 1550 | 1420 | > 10 | 270 | > 10 | – | – | – | – | – | – |
| NC(=O)c1sc(N2CCOCC2)nc1CC(=O)N1CCc2cc(Br)ccc21 | 483 | 420 | > 10 | 240 | > 10 | – | – | – | – | – | – |
| CC1Cc2ccccc2N1C(=O)Cc1nc(N2CCOCC2)sc1C(N)=O (racemic) | 435 | 40 | > 10 | 178 | > 10 | – | – | – | – | – | – |
| NC(=O)c1sc(N2CCOCC2)nc1CC(=O)Nc1ccc(F)c(Cl)c1 | 227 | – | > 10 | 45 | 8.28 | – | – | – | – | – | – |
| O=C(O)c1sc(N2CCOCC2)nc1CC(=O)N1CCc2c(Br)cccc21 | 133 | 1780 | > 10 | 11 | 1.12 | 0 | 8 | 40 | 0.2 | – | – |
| CC1Cc2c(Cl)cccc2N1C(=O)Cc1nc(N2CCOCC2)sc1C(=O)O (stereo not given) | 149 | 876 | > 10 | 8 | > 10 | 17 | 8 | 40 | 0.9 | 4740 (≈ 2000 µg/mL) | – |
| NC(=O)c1sc(N2CCOCC2)nc1CC(=O)N1CCc2c(Cl)cccc21 | 277 | 122 | > 10 | 49 | 6.33 | 61 | 40 | 40 | – | 2 (≈ 0.814 µg/mL) | – |
| NC(=O)c1sc(N2CCOCC2)nc1CC(=O)N1CCc2c(Br)cccc21 | 178 | 22 | 8.13 | 11 | 2.15 | 63 | 57 | 40 | 24.7 | 2 (≈ 0.903 µg/mL) | – |
| CC1Cc2c(Br)cccc2N1C(=O)Cc1nc(N2CCOCC2)sc1C(N)=O (single isomer, unassigned; (-)) | 92 | 3 | 3.26 | 13 | 1.32 | – | 85 | 25 | 20.9 | – | 89 |
| CC1CN(C(=O)Cc2nc(N3CCOCC3)sc2C(N)=O)c2ccccc21 (racemic) | 567 | 75 | 4.2 | 130 | > 10 | – | – | – | – | – | – |
| CC1Cc2c(Cl)cccc2N1C(=O)Cc1nc(N2CCOCC2)sc1C(N)=O (stereo not given) | 58 | 13 | > 10 | 10 | > 10 | 70 | 77 | – | 29.6 | 2 (≈ 0.842 µg/mL) | – |
| NC(=O)c1sc(N2CCOCC2)nc1CC(=O)N1CCc2ccccc21 | 230 | 25 | > 10 | 71 | 4.08 | 44 | 35 | 40 | 16 | 3 (≈ 1.12 µg/mL) | – |
| NC(=O)c1sc(N2CCOCC2)nc1CC(=O)N1CCc2c(F)cccc21 | 485 | 38 | > 10 | 138 | 7.23 | – | – | – | – | – | – |
| O=C(O)c1sc(N2CCOCC2)nc1CC(=O)N1CCc2cc(Br)ccc21 | 1000 | 3000 | > 10 | 308 | > 10 | – | – | – | – | – | – |
| NC(=O)c1sc(N2CCOCC2)nc1CC(=O)N1CCc2cc(Cl)ccc21 | 1860 | 110 | > 10 | 166 | > 10 | – | – | – | – | – | – |
| CC1Cc2ccccc2N1C(=O)Cc1nc(N2CCOCC2)sc1C(=O)O (racemic) | 2720 | 2310 | > 10 | 340 | > 10 | – | – | – | – | – | – |
